Assay: recombinant UMI read abundance after kanamycin selection (control-corrected) (log10(CPM+1)); higher = more efficient recombination; extreme values may be limits of the assay; sequences stand for … in AGTGCAGAGAAAATCGGCCAGTTTTCTCTGCCTGCAGTCCGCATGCCGTGGGACCCCTTGGGTTCTAACCTGTTGCCTAGATTTATGCAGCGGACTGCCTTTCTCCCAAAGTGATAAACCGG…AGGTTGGTTTCACT; site = the 11-nt donor
Protocol: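 Pooled E. coli donor-specificity screen for the IS621 bridge recombinase. Each library member carries a reprogrammed 11-nt donor and a full-length LE bridge RNA expressed in cis from the natural promoter, with a paired donor-binding loop (8-nt LDG + 4-nt RDG) and a target-binding loop fixed to T5. It is co-electroporated with a T5 target plasmid; recombinase is induced with 0.07 mM IPTG and recombinants are selected on kanamycin. UMIs are counted as CPM, averaged over two biological replicates and corrected by the unselected control. Molecule = full bridge RNA written as DNA, built from the T5 scaffold: LDG = donor specificity nt 1-8, RDG = reverse complement of nt 8-11.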

Point of comparison: “ACAATATCATGGACCGGTTTTCCCGGTAATCCGTATTTGGA (site ACAATATCTTC)”, “recombinant UMI read abundance (log10)” value 2.07. Against it:
- AATGTAACATGGACCGGTTTTCCCGGTAATCCGTATTTGGT (site AATGTAACTAT) — lower, 0.468
- AATGTAGCATGGACCGGTTTTCCCGGTAATCCGTATTTGCT (site AATGTAACTAG) — lower, 0
- AATGTAGCATGGACCGGTTTTCCCGGTAATCCGTATTTGCT (site AATGTACCTAG) — lower, 0
- AATGTAGCATGGACCGGTTTTCCCGGTAATCCGTATTTGCT (site AATGTAGCTAG) — lower, 1.55
- AATGTAGCATGGACCGGTTTTCCCGGTAATCCGTATTTGCT (site AATGTATCTAG) — lower, 0.516
- AATGTATCATGGACCGGTTTTCCCGGTAATCCGTATTTGAC (site AATGTATCTGT) — higher, 3.11
- AATGTATCATGGACCGGTTTTCCCGGTAATCCGTATTTGAC (site AATGTCTCTGT) — lower, 0
- AATGTATCATGGACCGGTTTTCCCGGTAATCCGTATTTGAC (site AATGTGTCTGT) — lower, 0
- AATGTATCATGGACCGGTTTTCCCGGTAATCCGTATTTGAC (site AATGTTTCTGT) — lower, 0
- AATGTCGCATGGACCGGTTTTCCCGGTAATCCGTATTTGGT (site AATGTCGCTAC) — lower, 1.19
- AATGTGCCATGGACCGGTTTTCCCGGTAATCCGTATTTGAC (site AATGTGACTGT) — lower, 0
- AATGTGCCATGGACCGGTTTTCCCGGTAATCCGTATTTGAC (site AATGTGCCTGT) — lower, 0
- AATGTGCCATGGACCGGTTTTCCCGGTAATCCGTATTTGAC (site AATGTGGCTGT) — lower, 0
- AATGTGCCATGGACCGGTTTTCCCGGTAATCCGTATTTGAC (site AATGTGTCTGT) — lower, 0
- AATGTGCCATGGACCGGTTTTCCCGGTAATCCGTATTTGCT (site AATGTGCCTAG) — lower, 0.0116
- AATGTGTCATGGACCGGTTTTCCCGGTAATCCGTATTTGCC (site AATGTGTCTGA) — lower, 0
- AATGTGTCATGGACCGGTTTTCCCGGTAATCCGTATTTGCC (site AATGTGTCTGC) — lower, 0
- AATGTGTCATGGACCGGTTTTCCCGGTAATCCGTATTTGCC (site AATGTGTCTGG) — higher, 2.81
- AATGTGTCATGGACCGGTTTTCCCGGTAATCCGTATTTGCC (site AATGTGTCTGT) — within 0.2 log units, 2.16
- AATGTTACATGGACCGGTTTTCCCGGTAATCCGTATTTGCT (site AATGTAACTAG) — lower, 1.05
- AATGTTACATGGACCGGTTTTCCCGGTAATCCGTATTTGCT (site AATGTCACTAG) — lower, 1.13
- AATGTTACATGGACCGGTTTTCCCGGTAATCCGTATTTGCT (site AATGTGACTAG) — lower, 0.00476
- AATGTTACATGGACCGGTTTTCCCGGTAATCCGTATTTGCT (site AATGTTACTAG) — higher, 2.3
- AATTAAGCATGGACCGGTTTTCCCGGTAATCCGTATTTGGA (site AATTAAGCTTC) — lower, 0.894
- AATTAAGCATGGACCGGTTTTCCCGGTAATCCGTATTTGGA (site AATTACGCTTC) — lower, 0.395
- AATTAAGCATGGACCGGTTTTCCCGGTAATCCGTATTTGGA (site AATTAGGCTTC) — lower, 0.648
- AATTAAGCATGGACCGGTTTTCCCGGTAATCCGTATTTGGA (site AATTATGCTTC) — lower, 0.412
- AATTATCCATGGACCGGTTTTCCCGGTAATCCGTATTTGCT (site AATTATCCTAG) — lower, 0.673
- AATTATCCATGGACCGGTTTTCCCGGTAATCCGTATTTGCT (site CATTATCCTAG) — lower, 0.041
- AATTATCCATGGACCGGTTTTCCCGGTAATCCGTATTTGCT (site GATTATCCTAG) — lower, 0.232
- AATTATCCATGGACCGGTTTTCCCGGTAATCCGTATTTGCT (site TATTATCCTAG) — lower, 0.201
- AATTATGCATGGACCGGTTTTCCCGGTAATCCGTATTTGGC (site AATTATGCTAC) — lower, 0.00687
- AATTATGCATGGACCGGTTTTCCCGGTAATCCGTATTTGGC (site AATTATGCTCC) — lower, 0.0199
- AATTATGCATGGACCGGTTTTCCCGGTAATCCGTATTTGGC (site AATTATGCTGC) — lower, 1.33
- AATTATGCATGGACCGGTTTTCCCGGTAATCCGTATTTGGC (site AATTATGCTTC) — lower, 0.332
- AATTCTTCATGGACCGGTTTTCCCGGTAATCCGTATTTGTA (site AATTCTTCTTA) — lower, 1.04
- AATTTACCATGGACCGGTTTTCCCGGTAATCCGTATTTGGC (site AATTTACCTGC) — lower, 0
- ACAAAGACATGGACCGGTTTTCCCGGTAATCCGTATTTGAG (site ACAAAGACTCT) — higher, 2.49
- ACAAGTTCATGGACCGGTTTTCCCGGTAATCCGTATTTGTG (site ACAAGTTCTCA) — higher, 2.42
- ACAATAACATGGACCGGTTTTCCCGGTAATCCGTATTTGCA (site ACAATAACTTG) — higher, 2.65
- ACAATAACATGGACCGGTTTTCCCGGTAATCCGTATTTGCA (site ACAGTATCTTG) — lower, 1.03
- ACAATATCATGGACCGGTTTTCCCGGTAATCCGTATTTGGA (site ACAGTATCTTG) — lower, 0
- ACACACCCATGGACCGGTTTTCCCGGTAATCCGTATTTGAC (site ACACAACCTGT) — lower, 0
- ACACACCCATGGACCGGTTTTCCCGGTAATCCGTATTTGAC (site ACACACCCTGT) — lower, 0.957
- ACACACCCATGGACCGGTTTTCCCGGTAATCCGTATTTGAC (site ACACAGCCTGT) — lower, 0
- ACACACCCATGGACCGGTTTTCCCGGTAATCCGTATTTGAC (site ACACATCCTGT) — lower, 0.471
- ACACATACATGGACCGGTTTTCCCGGTAATCCGTATTTGAC (site ACACATACTGT) — higher, 2.71
- ACACATACATGGACCGGTTTTCCCGGTAATCCGTATTTGAC (site ACACATCCTGT) — lower, 0
- ACACATACATGGACCGGTTTTCCCGGTAATCCGTATTTGAC (site ACACATGCTGT) — lower, 1.74
- ACACATACATGGACCGGTTTTCCCGGTAATCCGTATTTGAC (site ACACATTCTGT) — lower, 0.554
- ACACATCCATGGACCGGTTTTCCCGGTAATCCGTATTTGCC (site ACACATCCTGA) — lower, 1.25
- ACACATCCATGGACCGGTTTTCCCGGTAATCCGTATTTGCC (site ACACATCCTGC) — lower, 0
- ACACATCCATGGACCGGTTTTCCCGGTAATCCGTATTTGCC (site ACACATCCTGG) — lower, 1.79
- ACACATCCATGGACCGGTTTTCCCGGTAATCCGTATTTGCC (site ACACATCCTGT) — lower, 0
- ACACATCCATGGACCGGTTTTCCCGGTAATCCGTATTTGTC (site ACACATCCTGA) — lower, 1.53
- ACACATCCATGGACCGGTTTTCCCGGTAATCCGTATTTGTC (site ACACATCCTGC) — lower, 0.011
- ACACATCCATGGACCGGTTTTCCCGGTAATCCGTATTTGTC (site ACACATCCTGG) — lower, 0
- ACACATCCATGGACCGGTTTTCCCGGTAATCCGTATTTGTC (site ACACATCCTGT) — lower, 0.239
- ACACCTGCATGGACCGGTTTTCCCGGTAATCCGTATTTGGG (site ACACCTGCTCC) — lower, 0.734
- ACACGAACATGGACCGGTTTTCCCGGTAATCCGTATTTGCC (site ACACGAACTGA) — lower, 1.32
- ACACGAACATGGACCGGTTTTCCCGGTAATCCGTATTTGCC (site ACACGAACTGC) — lower, 0
- ACACGAACATGGACCGGTTTTCCCGGTAATCCGTATTTGCC (site ACACGAACTGG) — higher, 2.57
- ACACGAACATGGACCGGTTTTCCCGGTAATCCGTATTTGCC (site ACACGAACTGT) — lower, 1.59
- ACACGAACATGGACCGGTTTTCCCGGTAATCCGTATTTGTT (site ACACGAACTAA) — within 0.2 log units, 2.08
- ACACGAACATGGACCGGTTTTCCCGGTAATCCGTATTTGTT (site ACACGAACTCA) — lower, 0.359
- ACACGAACATGGACCGGTTTTCCCGGTAATCCGTATTTGTT (site ACACGAACTGA) — within 0.2 log units, 1.96
- ACACGAACATGGACCGGTTTTCCCGGTAATCCGTATTTGTT (site ACACGAACTTA) — lower, 1.35
- ACACGGACATGGACCGGTTTTCCCGGTAATCCGTATTTGCT (site ACACGGACTAG) — higher, 2.76
- ACACGTACATGGACCGGTTTTCCCGGTAATCCGTATTTGGG (site ACACGTACTCC) — lower, 0.42
- ACACTATCATGGACCGGTTTTCCCGGTAATCCGTATTTGCG (site ACACTATCTCG) — higher, 2.79
- ACACTATCATGGACCGGTTTTCCCGGTAATCCGTATTTGCG (site ACAGTATCTTG) — lower, 0

From the supplement of paper PMC11208160
